Test results published in patent US20180140609A1, “USE OF (4-HYDROXY-2-METHYL-1,1-DIOXIDO-2H-BENZO[E][1,2]THIAZINE-3-YL)(NAPHTHALENE-2-YL) METHANONE IN THE PREVENTION AND/OR TREATMENT OF NON-ALCOHOLIC STEATOHEPATITIS” (PIERRE FABRE MEDICAMENT, priority 2015, published 2018).
Where two headings read alike, the source gives them in different places.

Assays:
[1] = target: human 11β-HSD type 1 (Homo sapiens, UniProt P28845); test: Plasma bioactivity after single oral administration in C57BL/6N mice, read as inhibition of human 11β-HSD type 1 (SPA); type: in vivo; details: for inhibition at 2.5 mg/kg / inhibition at 10 mg/kg: po, mice, table with plasma levels; for inhibition at 2.5 mg/kg: 2.5 mg/kg oral; for inhibition at 10 mg/kg: 10 mg/kg oral
Experimental: (§1) The evaluation is made in on 4- to 6-week-old non-fasted male C57BL/6N strain mice. The compounds to be tested or the vehicle (0.5% methylcellulose in water, at 10 ml/kg) are administered orally; n=3 mice per treatment.
(§2) Blood samples are collected 1 h and 4 h after administration; the tubes are centrifuged to obtain plasma and frozen at −70° C. until bioanalysis. Plasma bioactivity (2% final volume) is analyzed by using the inhibition of human 11β-HSD type 1 as a detection system (SPA technology) for each compound at each dose tested. Percent inhibition (versus mice treated with carrier) is calculated for each dose.

[2] = tested on: hepatic 11β-HSD type 1; test: Ex vivo activity of hepatic 11β-HSD type 1 after single oral administration in cynomolgus monkeys; details: 20 mg/kg single oral, liver 4 hours after administration
Experimental: (§3) Five adult male cynomolgus monkeys (same animals used in studies 1 and 2 of Example 4) are fasted the evening before the experiment. Blood samples are taken right before administration of Compound 1K (dose of 20 mg/kg, n=3) or administration of the vehicle (0.5% methylcellulose in water, n=2) then 4 hours after oral administration. The animals are euthanized, necropsy is performed on the monkeys, samples of plasma and of target tissues are taken and then frozen in liquid nitrogen and stored at −70° C. until ex vivo analyses. To test the ex vivo activity of 11β-HSD type 1, 5-10 mg liver samples were incubated in duplicate for 30 minutes at 37° C. with 17 nM [1,2-^3H] cortisone in 50 mM HEPES (pH 7.4), 100 mM KCl, 5 mM NaCl, 2 mM MgCl2. Plasma levels were measured by the LC-MS/MS analytical method. The liver samples were homogenized by sonication and extracted with acetonitrile (1 ml of distilled water, 4 ml of acetonitrile for 200 mg of tissue). Tissue levels of the compounds were measured by the LC-MS/MS analytical method.

[3] = tested on: 11β-HSD type 1; test: Inhibition of conversion of prednisone to prednisolone after single administration to cynomolgus monkeys; type: in vivo
Experimental: The protocol used is described by Bhat et al. (J. Pharmacol. Exp. Ther. 324, 299-305, 2008).
Briefly, the study is carried out in naive adult male cynomolgus monkeys fasted overnight. The 11β-HSD type 1 inhibitor or its vehicle (0.5% methylcellulose in water) is administered via nasogastric intubation. Two hours later, a challenge with orally administered prednisone (10 mg/kg) is performed and blood samples are taken regularly for 24 hours. These samples are centrifuged to obtain plasma and immediately frozen at −70° C. until bioanalysis. Plasma levels of prednisone, prednisolone and 11β-HSD type 1 inhibitors are measured by LC-MS/MS analytical methods.
The study is carried out over a period of 10 weeks. Profiles of plasma concentration as a function of time and areas under the curve are calculated using the trapezoidal method for all parameters.
The effect of Compound 1 is evaluated at three doses: 1.25, 5 and 20 mg/kg.
The effect of Compound 1K is evaluated at three doses: 20, 40 and 80 mg/kg. The protocol is quite similar to the preceding, except that only 5 blood samples were taken per monkey rather than 7. Compound 1K was also evaluated over a period of 10 weeks.
The 11β-HSD type 1 activity-dependent conversion of prednisone to prednisolone was evaluated. Compound 2K inhibits roughly 50% this activity at a dose of 20 mg/kg (FIG. 2A). FIG. 2 represents the effects of Compound 2K, at the three doses tested, on plasma prednisolone/prednisone ratio calculated with the area under the curve between 30 minutes and 4 hours (panel A) and on plasma exposure during the 6-hour experimental period (panel B); the results obtained with Compound 1K at a dose of 5 mg/kg are compared in the two panels.

[4] = tested on: 11β-HSD type 1 of adipose tissue; test: Ex vivo activity of 11β-HSD type 1 of adipose tissue after single oral administration to cynomolgus monkeys; type: in vivo; details: 20 mg/kg single oral, 4 hours, mesenteric and subcutaneous adipose tissue
Experimental: as §3
(§4) The protocol is the same as that described in Example 5, except that the tissue samples are from mesenteric, subcutaneous and inguinal adipose tissue.

[5] = Plasma level by LC/MS after single oral administration in C57BL/6N mice; type: in vivo; details: parent molecule by LC/MS
Experimental: as §1, §2
Compound 1 is detected in the plasma of the treated mice and inhibits 11β-HSD type 1 as of 0.63 mg/kg. LC/MS analyses of plasma samples from the animals treated with Compound 1K show a much higher plasma level of the parent molecule than that found for Compound 1.

[6] = Plasma and tissue levels after single oral administration in cynomolgus monkeys (LC-MS/MS); type: in vivo; details: male, cynomolgus monkey, 20 mg/kg oral
Experimental: as §3, §4

[7] = target: T1, human 11β-HSD 1 (Homo sapiens, UniProt P28845); test: Inhibition of human 11β-HSD 1 in primary human differentiated adipocytes in culture (cortisone to cortisol, SPA); type: cell-based
T1 construct: evaluated on primary human adipocytes in culture (ZenBio); host or cells: primary human preadipocytes differentiated into adipocytes, from three donors
Experimental: Inhibition of human 11β-HSD 1 enzyme is evaluated on primary human adipocytes in culture (ZenBio).
Preadipocytes are thawed and their viability is confirmed. The preadipocytes are then placed in 96-well microplates in a specific preadipocyte medium (PM-1) provided by ZenBio; the plates are incubated at 37° C. with 5% CO2. One day or more after the cells are confluent, PM-1 is replaced with a more specific differentiation medium (DM), also provided by ZenBio, containing isobutylmethylxanthine, insulin, dexamethasone and a PPAR agonist. The cells will differentiate into adipocytes after a minimum of 7 days. Next, the mature adipocytes are maintained for 4 to 6 days in adipocyte maintenance medium (AM). Then, in the presence of serum treated with dextran-coated charcoal, the cells are placed in steroid-deficient conditions for 48 h, and are pretreated with the inhibitors to be tested or their carrier (0.1% DMSO) for 1 h at 37° C. before the pulse with cortisone. Tritiated cortisone is added for 4 hours to reach a final concentration of 20 nM. The cortisol concentration is quantified from the cell supernatant using SPA technology. EC50 values are obtained with the SigmaPlot v.11 software, four parameter logistic equation; the reported values come from three different experiments carried out on three different donors.

[8] = 1 h, read-out: Plasma 1 h % inh.
[9] = 4 h, read-out: Plasma 4 h % inh.

Chain of human 11β-HSD type 1 (P28845 whole entry): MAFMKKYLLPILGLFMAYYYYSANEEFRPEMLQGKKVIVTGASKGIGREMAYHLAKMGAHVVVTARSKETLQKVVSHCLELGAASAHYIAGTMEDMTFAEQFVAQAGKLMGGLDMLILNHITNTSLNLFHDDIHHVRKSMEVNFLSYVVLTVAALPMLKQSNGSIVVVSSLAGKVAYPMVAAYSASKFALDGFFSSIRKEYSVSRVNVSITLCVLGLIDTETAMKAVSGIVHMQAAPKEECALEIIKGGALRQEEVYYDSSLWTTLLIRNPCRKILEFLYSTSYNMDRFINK
T1 sequence (P28845 whole entry): as above

CN1C(C(=O)c2ccc3ccccc3c2)=C([O-])c2ccccc2S1(=O)=O.[K+] [Compound 1K, potassium 3-(2-naphthoyl)-2-methyl-2H-benzo[e][1,2]thiazin-4-olate 1,1-dioxide]
% inhibition at 1 h ([1]; mouse plasma (2% final volume), 1 h after 0.63 mg/kg oral): 47% | % inhibition at 1 h ([1]; mouse plasma, 1 h after 2.5 mg/kg oral): 78% | % inhibition at 1 h ([1]; mouse plasma, 1 h after 10 mg/kg oral): 91% | % inhibition at 4 h ([1]; mouse plasma, 4 h after 0.63 mg/kg oral): 36% | % inhibition at 4 h ([1]; mouse plasma, 4 h after 2.5 mg/kg oral): 67% | % inhibition at 4 h ([1]; mouse plasma, 4 h after 10 mg/kg oral): 86% | inhibition at 2.5 mg/kg [1, 8]: 75 ± 4% | inhibition at 2.5 mg/kg [1, 9]: 63 ± 6% | inhibition at 10 mg/kg [1, 8]: 89 ± 1% | inhibition at 10 mg/kg [1, 9]: 85 ± 2% | inhibition of the ex vivo activity of hepatic 11β-HSD type 1 [2]: 68% | inhibition of plasma prednisolone/prednisone ratio of AUC (30 minutes to 4 hours) ([3]; 20 mg/kg, prednisone 10 mg/kg 2 h later): 81% | inhibition of conversion of prednisone to prednisolone (prednisolone/prednisone AUC ratio) ([3]; 40 mg/kg): 79% | inhibition of conversion of prednisone to prednisolone (prednisolone/prednisone AUC ratio) ([3]; 80 mg/kg): 89% | "maximum" inhibition of plasma prednisolone/prednisone ratio of AUC (30 minutes to 4 hours) ([3]; all the doses tested (20, 40 and 80 mg/kg), 5 animals per group): at least 80% | inhibition of ex vivo activity of 11β-HSD type 1 of peripheral and visceral adipose tissue [4]: complete inhibition | Plasma 1 h ([5]; 10 mg/kg oral, 1 h): 13900 ± 2117 ng/mL | concentration at 1 h ([5]; male, C57BL/6N, mouse, plasma, po, 2.5 mg/kg, 2.5 mg/kg oral, 1 h): 4240 ± 1260 ng/mL | concentration at 4 h ([5]; male, C57BL/6N, mouse, plasma, po, 2.5 mg/kg, 2.5 mg/kg oral): 3470 ± 2430 ng/mL | concentration at 4 h ([5]; male, C57BL/6N, mouse, plasma, po, 10 mg/kg, 10 mg/kg oral): 6810 ± 674 ng/mL | concentration at 4 h ([6]; liver, read-out: mean hepatic levels (in relative value)): 13600 ± 3700 ng/g | concentration at 4 h ([6]; inguinal adipose tissue, read-out: tissue levels (in relative value), inguinal adipose tissue): 6100 ± 1500 ng/g | concentration at 4 h ([6]; mesenteric adipose tissue, read-out: tissue levels (in relative value), mesenteric adipose tissue): 6600 ± 400 ng/g | concentration at 4 h ([6]; plasma, ± SEM, n=3, read-out: mean plasma levels): 17000 ± 3580 ng/mL | concentration at 4 h ([6]; subcutaneous adipose tissue, read-out: tissue levels (in relative value), subcutaneous adipose tissue): 1300 ± 100 ng/g | Emax (% inhibition at 10 μM) ([7]; 10 μM): 97 % inhibition | EC50 ([7]; 1 h pretreatment, 20 nM tritiated cortisone 4 h, three donors): 58 nM
